OC(Cc1ccccc1Cl)(Cn1[nH]cnc1=S)C1(Cl)CC1 (centres undefined)
solubility (mole fraction)
Settings	in acetonitrile	in isopropanol	in methanol	in n-butanol	in n-propanol	in sec-butanol	in toluene
283.15 K	0.00629	0.0115	0.01	0.0147	0.0125	0.00735	0.00196
288.15 K	0.008	0.0142	0.0127	0.018	0.0161	0.00954	0.00287
293.15 K	0.0103	0.0176	0.0154	0.0215	0.0199	0.0124	0.00368
298.15 K	0.0126	0.0215	0.019	0.0268	0.0248	0.0152	0.00481
303.15 K	0.0171	0.0268	0.0232	0.0327	0.0305	0.0191	0.00574
308.15 K	0.0214	0.0331	0.0307	0.0417	0.0373	0.0259	0.00782
313.15 K	0.0254	0.0385	0.0371	0.0513	0.0465	0.0321	0.0101

Source: BigSolDB 2.1
